# Data reported in patent publication US20100022491A1, “4-HYDROXY-2-OXO-2,3-DIHYDRO-1,3-BENZOTHIAZOL-7YL COMPOUNDS FOR MODULATION OF B2-ADRENORECEPTOR ACTIVITY” (ASTRAZENECA AB, priority 2006, published 2010).
# Structures can show the parent of a compound that is named as a salt.
# Legend:
# [1] = target: T1, Adrenergic β2 (Homo sapiens, UniProt P07550); assay: Adrenergic β2 mediated cAMP production in H292 cells; type: cell-based; conditions: for EC50: H292 cells, cAMP by AlphaScreen, 60 minutes at room temperature, rolipram 300 μM, read-out: β2 pEC50 (converted); for β2 Int Act: Intrinsic Activity as a fraction relative to the maximum activity determined for formoterol
# T1 construct: Adherent H292 cells were removed from tissue culture flasks; endogenous in cells; host or cells: H292 cells
# Experimental: Adrenergic β2 mediated cAMP production
# H292 cells were grown in 225 cm2 flasks incubator at 37° C., 5% CO2 in RPMI medium containing, 10% (v/v) FBS (foetal bovine serum) and 2 mM L-glutamine.
# Adherent H292 cells were removed from tissue culture flasks by treatment with Accutase™ cell detachment solution for 15 minutes. Flasks were incubated for 15 minutes in a humidified incubator at 37° C., 5% CO2. Detached cells were re-suspended in RPMI media (containing 10% (v/v) FBS and 2 mM L-glutamine) at 0.05×10^6 cells per mL. 5000 cells in 100 μL were added to each well of a tissue-culture-treated 96-well plate and the cells incubated overnight in a humidified incubator at 37° C., 5% CO2. The culture media was removed and cells were washed twice with 100 μL assay buffer and replaced with 50 μL assay buffer (HBSS solution containing 10 mM HEPES pH7.4 and 5 mM glucose). Cells were rested at room temperature for 20 minutes after which time 25 μL of rolipram (1.2 mM made up in assay buffer containing 2.4% (v/v) dimethylsulphoxide) was added. Cells were incubated with rolipram for 10 minutes after which time test compounds were added and the cells were incubated for 60 minutes at room temperature. The final rolipram concentration in the assay was 300 μM and final vehicle concentration was 1.6% (v/v) dimethylsulphoxide. The reaction was stopped by removing supernatants, washing once with 100 μL assay buffer and replacing with 50 μL lysis buffer. The cell monolayer was frozen at −80° C. for 30 minutes (or overnight).
# The concentration of cAMP (cyclic adenosine monophosphate) in the cell lysate was determined using AlphaScreen™ methodology. The frozen cell plate was thawed for 20 minutes on a plate shaker then 10 μL of the cell lysate was transferred to a 96-well white plate. 40 μL of mixed AlphaScreen™ detection beads pre-incubated with biotinylated cAMP, was added to each well and the plate incubated at room temperature for 10 hours in the dark. The AlphaScreen™ signal was measured using an EnVision spectrophotometer (Perkin-Elmer Inc.) with the recommended manufacturer's settings. cAMP concentrations were determined by reference to a calibration curve determined in the same experiment using standard cAMP concentrations. Concentration response curves for agonists were constructed and data was fitted to a four parameter logistic equation to determine both the pEC50 and Intrinsic Activity. Intrinsic Activity was expressed as a fraction relative to the maximum activity determined for formoterol in each experiment.
# [2] = target: T2, recombinant human α1D receptor (Homo sapiens, UniProt P25100); assay: Adrenergic α1D selectivity binding assay ([3H]-prazosin); conditions: inhibition of [3H]-prazosin (0.3 nM) binding, HEK293 membranes; read-out: α1 bind pIC50 (converted)
# T2 construct: expressed in transfected cells; host or cells: HEK293
# T2 sequence (P25100 1-572): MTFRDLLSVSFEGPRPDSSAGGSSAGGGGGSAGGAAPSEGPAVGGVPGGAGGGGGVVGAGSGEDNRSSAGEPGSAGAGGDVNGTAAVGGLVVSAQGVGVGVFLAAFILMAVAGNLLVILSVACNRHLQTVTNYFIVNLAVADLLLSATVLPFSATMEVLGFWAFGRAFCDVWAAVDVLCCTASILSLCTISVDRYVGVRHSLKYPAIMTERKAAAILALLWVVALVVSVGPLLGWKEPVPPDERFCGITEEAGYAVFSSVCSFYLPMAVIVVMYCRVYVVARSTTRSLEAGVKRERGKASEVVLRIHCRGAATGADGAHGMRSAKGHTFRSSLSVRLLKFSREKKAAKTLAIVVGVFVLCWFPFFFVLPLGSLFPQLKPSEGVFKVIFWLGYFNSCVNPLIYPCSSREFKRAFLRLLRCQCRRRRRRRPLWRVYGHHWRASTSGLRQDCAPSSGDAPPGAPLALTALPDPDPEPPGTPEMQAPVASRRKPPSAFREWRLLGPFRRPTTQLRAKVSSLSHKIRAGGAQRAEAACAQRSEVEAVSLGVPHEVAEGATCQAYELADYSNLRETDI
# Experimental: Membranes were prepared from human embryonic kidney 293 (HEK293) cells expressing recombinant human α1D receptor. These were diluted in Assay Buffer (50 mM HEPES, 1 mM EDTA, 0.1% gelatin, pH 7.4) to provide a final concentration of membranes that gave a clear window between maximum and minimum specific binding.
# (§1) Assays were performed in U-bottomed 96-well polypropylene plates. 10 μL [^3H]-prazosin (0.3 nM final concentration) and 10 μL of test compound (10× final concentration) were added to each test well. For each assay plate 8 replicates were obtained for [^3H]-prazosin binding in the presence of 10 μL vehicle (10% (v/v) DMSO in Assay Buffer; defining maximum binding) or 10 μL BMY7378 (10 μM final concentration; defining non-specific binding (NSB)). Membranes were then added to achieve a final volume of 100 μL. The plates were incubated for 2 hours at room temperature and then filtered onto PEI coated GF/B filter plates, pre-soaked for 1 hour in Assay Buffer, using a 96-well plate Tomtec cell harvester. Five washes with 250 μL wash buffer (50 mM HEPES, 1 mM EDTA, pH 7.4) were performed at 4° C. to remove unbound radioactivity. The plates were dried then sealed from underneath using Packard plate sealers and MicroScint-O (50 μL) was added to each well. The plates were sealed (TopSeal A) and filter-bound radioactivity was measured with a scintillation counter (TopCount, Packard BioScience) using a 3-minute counting protocol.
# (§2) Total specific binding (B0) was determined by subtracting the mean NSB from the mean maximum binding. NSB values were also subtracted from values from all other wells. […] Data was fitted to a four parameter logistic equation to determine the compound potency, which was expressed as pIC50 (negative log molar concentration inducing 50% inhibition of [^3H]-prazosin binding).
# [3] = target: T3, recombinant human adrenergic beta 1 receptors (Homo sapiens, UniProt P08588); assay: Adrenergic β1 selectivity binding assay ([125I]-Iodocyanopindolol); conditions: inhibition of [125I]-Iodocyanopindolol (0.036 nM) binding; read-out: β1 bind p IC50 (converted)
# T3 construct: purchased Euroscreen
# Experimental: (§3) Membranes containing recombinant human adrenergic beta 1 receptors were obtained from Euroscreen. These were diluted in Assay Buffer (50 mM HEPES, 1 mM EDTA, 120 mM NaCl, 0.1% gelatin, pH 7.4) to provide a final concentration of membranes that gave a clear window between maximum and minimum specific binding.
# as §1, with “[^125I]-Iodocyanopindolol (0.036” for “[^3H]-prazosin (0.3”, “[^125I]-Iodocyanopindolol” for “[^3H]-prazosin”, “Propranolol” for “BMY7378”, “EDTA, 120 mM NaCl,” for “EDTA,”
# as §2, with “[^125I]-Iodocyanopindolol” for “[^3H]-prazosin”
# [4] = target: T4, recombinant human Dopamine Subtype D2s receptors (Homo sapiens, UniProt P14416); assay: Dopamine D2 selectivity binding assay ([3H]-spiperone); conditions: inhibition of [3H]-spiperone (0.16 nM) binding; read-out: D2 bind pIC50 (converted)
# T4 construct: purchased Perkin Elmer
# Experimental: as §3, with “Dopamine Subtype D2s” for “adrenergic beta 1”, “Perkin Elmer.” for “Euroscreen.”
# Assays were performed in U-bottomed 96-well polypropylene plates. 30 μL [^3H]-spiperone (0.16 nM final concentration) and 30 μL of test compound (10× final concentration) were added to each test well. For each assay plate 8 replicates were obtained for [^3H]-spiperone binding in the presence of 30 μL vehicle (10% (v/v) DMSO in Assay Buffer; defining maximum binding) or 30 μL Haloperidol (10 μM final concentration; defining non-specific binding (NSB)). Membranes were then added to achieve a final volume of 300 μL. The plates were incubated for 2 hours at room temperature and then filtered onto PEI coated GF/B filter plates, pre-soaked for 1 hour in Assay Buffer, using a 96-well plate Tomtec cell harvester. Five washes with 250 μL wash buffer (50 mM HEPES, 1 mM EDTA, 120 mM NaCl, pH 7.4) were performed at 4° C. to remove unbound radioactivity. The plates were dried then sealed from underneath using Packard plate sealers and MicroScint-O (50 μL) was added to each well. The plates were sealed (TopSeal A) and filter-bound radioactivity was measured with a scintillation counter (TopCount, Packard BioScience) using a 3-minute counting protocol.
# as §2, with “[^3H]-spiperone” for “[^3H]-prazosin”
# T1 sequence (P07550 whole entry): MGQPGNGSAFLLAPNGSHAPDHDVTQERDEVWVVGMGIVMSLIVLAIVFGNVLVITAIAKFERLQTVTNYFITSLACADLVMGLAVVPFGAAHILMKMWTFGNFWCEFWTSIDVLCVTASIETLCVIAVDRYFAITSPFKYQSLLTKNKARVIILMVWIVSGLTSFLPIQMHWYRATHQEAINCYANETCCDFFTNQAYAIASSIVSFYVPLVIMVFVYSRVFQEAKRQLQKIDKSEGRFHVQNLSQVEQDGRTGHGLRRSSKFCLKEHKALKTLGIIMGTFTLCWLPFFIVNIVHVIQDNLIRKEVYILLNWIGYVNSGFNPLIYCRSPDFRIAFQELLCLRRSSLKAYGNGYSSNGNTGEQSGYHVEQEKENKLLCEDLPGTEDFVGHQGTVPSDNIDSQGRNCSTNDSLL
# T4 sequence (P14416 1-414 isoform P14416-2): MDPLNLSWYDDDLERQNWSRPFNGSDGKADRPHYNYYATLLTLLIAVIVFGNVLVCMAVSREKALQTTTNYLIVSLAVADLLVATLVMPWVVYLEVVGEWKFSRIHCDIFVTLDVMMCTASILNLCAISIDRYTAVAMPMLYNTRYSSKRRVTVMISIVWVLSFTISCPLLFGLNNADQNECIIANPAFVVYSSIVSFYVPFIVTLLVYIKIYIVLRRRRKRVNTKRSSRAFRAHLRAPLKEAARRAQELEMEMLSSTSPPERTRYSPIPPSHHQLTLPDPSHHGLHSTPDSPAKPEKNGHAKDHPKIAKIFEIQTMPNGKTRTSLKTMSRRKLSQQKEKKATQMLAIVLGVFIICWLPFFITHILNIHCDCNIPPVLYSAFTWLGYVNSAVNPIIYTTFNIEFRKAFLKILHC
# T3 sequence (P08588 whole entry): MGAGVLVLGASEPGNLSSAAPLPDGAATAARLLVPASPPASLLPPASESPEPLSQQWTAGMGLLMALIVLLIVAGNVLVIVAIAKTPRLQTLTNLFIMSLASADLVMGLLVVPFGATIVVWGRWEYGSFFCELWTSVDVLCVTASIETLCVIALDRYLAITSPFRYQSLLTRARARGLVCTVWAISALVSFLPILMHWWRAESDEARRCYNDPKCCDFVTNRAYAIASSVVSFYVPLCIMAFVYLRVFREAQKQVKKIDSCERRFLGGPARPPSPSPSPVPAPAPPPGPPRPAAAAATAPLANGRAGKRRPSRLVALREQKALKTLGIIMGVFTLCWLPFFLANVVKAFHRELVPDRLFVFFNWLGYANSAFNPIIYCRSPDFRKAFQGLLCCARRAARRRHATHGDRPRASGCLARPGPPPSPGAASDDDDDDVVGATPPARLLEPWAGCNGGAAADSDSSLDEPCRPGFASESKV
EC50 [1] [nM],β2 Int Act [1],IC50 [2] [nM],IC50 [3] [nM],IC50 [4] [nM],Structure (SMILES)
7.94,0.59,631,1580,,"O=C(CCNCCc1ccc(Cl)c(Cl)c1)N(CCNCCc1ccc(O)c2[nH]c(=O)sc12)C1CCC(F)(F)CC1 [Example 49, N^3-[2-(3,4-Dichlorophenyl)ethyl]-N^1-(4,4-difluorocyclohexyl)-N^1-(2-{[2-(4-hydroxy-2-oxo-2,3-dihydro-1,3-benzothiazol-7-yl)ethyl]amino}ethyl)-β-alaninamide bis-trifluoroacetic acid salt]"
126,0.86,1260,,398,"O=C(CCNCCC(F)(F)F)N(CCNCCc1ccc(O)c2[nH]c(=O)sc12)C1CCCCC1 [Example 80, N^1-Cyclohexyl-N^1-(2-{[2-(4-hydroxy-2-oxo-2,3-dihydro-1,3-benzothiazol-7-yl)ethyl]amino}ethyl)-N^3-(3,3,3-trifluoropropyl)-β-alaninamide bis-trifluoroacetic acid salt]"
63.1,0.64,794,,794,"CC(C)(CO)CN(CCNCCc1ccc(O)c2[nH]c(=O)sc12)C(=O)CCNCCc1ccc(Cl)cc1 [Example 40, N^3-[2-(4-Chlorophenyl)ethyl]-N-(3-hydroxy-2,2-dimethylpropyl)-N-(2-{[2-(4-hydroxy-2-oxo-2,3-dihydro-1,3-benzothiazol-7-yl)ethyl]amino}ethyl)-β-alaninamide diacetic acid salt]"
